Measured values: PubChem BioAssay AID1919013 (Molecular Pharmacology Branch, DTP, NCI, 2023)

Test system: LG0703-F498-PDC complex spheroid growth
Test: Anticancer human tumor LG0703-F498-PDC patient-derived lung adenocarcinoma cell line growth inhibition [AhR]
Settings: for IC50: curve of first compound; for viability, T/C: stronger effect = lower value
In short: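 Agents were dosed in half-log steps down from roughly clinical Cmax, or from 10 microM where Cmax was unknown, alone and with AhR antagonists. Read-out: percent test/control growth of tumor spheroids containing HUVEC and MSC stromal cells.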

[1] = second compound 0.1 µM, first compound 0.0316 µM
[2] = second compound 0.1 µM, first compound 0.1 µM
[3] = second compound 0.1 µM, first compound 0.316 µM
[4] = second compound 0.1 µM, first compound 1 µM
[5] = second compound 0.1 µM, first compound 3.16 µM
[6] = second compound 0.1 µM, first compound 10 µM
[7] = second compound 0.316 µM, first compound 0.0316 µM
[8] = second compound 0.316 µM, first compound 0.1 µM
[9] = second compound 0.316 µM, first compound 0.316 µM
[10] = second compound 0.316 µM, first compound 1 µM
[11] = second compound 0.316 µM, first compound 3.16 µM
[12] = second compound 0.316 µM, first compound 10 µM
[13] = second compound 1 µM, first compound 0.0316 µM
[14] = second compound 1 µM, first compound 0.1 µM
[15] = second compound 1 µM, first compound 0.316 µM
[16] = second compound 1 µM, first compound 1 µM
[17] = second compound 1 µM, first compound 3.16 µM
[18] = second compound 1 µM, first compound 10 µM
[19] = second compound 3.16 µM, first compound 0.0316 µM
[20] = second compound 3.16 µM, first compound 0.1 µM
[21] = second compound 3.16 µM, first compound 0.316 µM
[22] = second compound 3.16 µM, first compound 1 µM
[23] = second compound 3.16 µM, first compound 3.16 µM
[24] = second compound 3.16 µM, first compound 10 µM
[25] = second compound 10 µM, first compound 0.0316 µM
[26] = second compound 10 µM, first compound 0.1 µM
[27] = second compound 10 µM, first compound 0.316 µM
[28] = second compound 10 µM, first compound 1 µM
[29] = second compound 10 µM, first compound 3.16 µM
[30] = second compound 10 µM, first compound 10 µM
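Also: luminescence taken as a proxy for viable cell amount.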
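For viability, T/C in this document: percent of DMSO vehicle control where 100% means growth equal to vehicle.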

SMILES: CCN(c1cc(-c2ccc(CN3CCOCC3)cc2)cc(C(=O)NCc2c(C)cc(C)[nH]c2=O)c1C)C1CCOCC1 + Cc1cncc(-c2nc(NCCc3c[nH]c4ccccc34)c3ncn(C(C)C)c3n2)c1
- IC50 (second compound 0.1 µM): > 3000 nM
- IC50 (second compound 0.316 µM): > 3000 nM
- IC50 (second compound 1 µM): > 3000 nM
- IC50 (second compound 3.16 µM): < 9.49 nM
- IC50 (second compound 10 µM): < 9.49 nM
- viability, T/C (second compound 0.1 µM, first compound 0.00949 µM): 106%
- viability, T/C (second compound 0.1 µM, first compound 0.03 µM): 110%
- viability, T/C (second compound 0.1 µM, first compound 0.0949 µM): 106%
- viability, T/C (second compound 0.1 µM, first compound 0.3 µM): 102%
- viability, T/C (second compound 0.1 µM, first compound 0.949 µM): 121%
- viability, T/C (second compound 0.1 µM, first compound 3 µM): 123%
- viability, T/C (second compound 0.316 µM, first compound 0.00949 µM): 118%
- viability, T/C (second compound 0.316 µM, first compound 0.03 µM): 104%
- viability, T/C (second compound 0.316 µM, first compound 0.0949 µM): 120%
- viability, T/C (second compound 0.316 µM, first compound 0.3 µM): 104%
- viability, T/C (second compound 0.316 µM, first compound 0.949 µM): 106%
- viability, T/C (second compound 0.316 µM, first compound 3 µM): 125%
- viability, T/C (second compound 1 µM, first compound 0.00949 µM): 119%
- viability, T/C (second compound 1 µM, first compound 0.03 µM): 110%
- viability, T/C (second compound 1 µM, first compound 0.0949 µM): 112%
- viability, T/C (second compound 1 µM, first compound 0.3 µM): 111%
- viability, T/C (second compound 1 µM, first compound 0.949 µM): 109%
- viability, T/C (second compound 1 µM, first compound 3 µM): 120%
- viability, T/C (second compound 3.16 µM, first compound 0.00949 µM): 30.5%
- viability, T/C (second compound 3.16 µM, first compound 0.03 µM): 26.3%
- viability, T/C (second compound 3.16 µM, first compound 0.0949 µM): 29.8%
- viability, T/C (second compound 3.16 µM, first compound 0.3 µM): 30.8%
- viability, T/C (second compound 3.16 µM, first compound 0.949 µM): 27.9%
- viability, T/C (second compound 3.16 µM, first compound 3 µM): 35.5%
- viability, T/C (second compound 10 µM, first compound 0.00949 µM): 1.09%
- viability, T/C (second compound 10 µM, first compound 0.03 µM): 1.47%
- viability, T/C (second compound 10 µM, first compound 0.0949 µM): 1.79%
- viability, T/C (second compound 10 µM, first compound 0.3 µM): 1.93%
- viability, T/C (second compound 10 µM, first compound 0.949 µM): 0.83%
- viability, T/C (second compound 10 µM, first compound 3 µM): 1.74%

SMILES: CC1COCCN1c1cc(C2(S(C)(=N)=O)CC2)nc(-c2ccnc3[nH]ccc23)n1 (stereo not given) + Cc1ccccc1N=Nc1ccc(NC(=O)c2ccnn2C)c(C)c1
- IC50 (second compound 0.1 µM): > 10000 nM
- IC50 (second compound 0.316 µM): > 10000 nM
- IC50 (second compound 1 µM): > 10000 nM
- IC50 (second compound 3.16 µM): > 10000 nM
- IC50 (second compound 10 µM): > 10000 nM
- viability, T/C [1]: 108%
- viability, T/C [2]: 101%
- viability, T/C [3]: 97%
- viability, T/C [4]: 99.5%
- viability, T/C [5]: 94.8%
- viability, T/C [6]: 67.6%
- viability, T/C [7]: 100%
- viability, T/C [8]: 92.7%
- viability, T/C [9]: 105%
- viability, T/C [10]: 98%
- viability, T/C [11]: 95%
- viability, T/C [12]: 64.1%
- viability, T/C [13]: 99.2%
- viability, T/C [14]: 92.9%
- viability, T/C [15]: 93.7%
- viability, T/C [16]: 96.6%
- viability, T/C [17]: 82.1%
- viability, T/C [18]: 67.4%
- viability, T/C [19]: 81.9%
- viability, T/C [20]: 88.5%
- viability, T/C [21]: 107%
- viability, T/C [22]: 87.5%
- viability, T/C [23]: 68.6%
- viability, T/C [24]: 56.1%
- viability, T/C [25]: 91.4%
- viability, T/C [26]: 77.2%
- viability, T/C [27]: 95.4%
- viability, T/C [28]: 91.9%
- viability, T/C [29]: 79.7%
- viability, T/C [30]: 65.2%

SMILES: COc1cccc2c1C(=O)c1c(O)c3c(c(O)c1C2=O)CC(O)(C(=O)CO)CC3OC1CC(N)C(O)C(C)O1 (stereo not given) + Cc1cncc(-c2nc(NCCc3c[nH]c4ccccc34)c3ncn(C(C)C)c3n2)c1
- IC50 (second compound 0.1 µM): 571 nM
- IC50 (second compound 0.316 µM): 454 nM
- IC50 (second compound 1 µM): 394 nM
- IC50 (second compound 3.16 µM): < 31.6 nM
- IC50 (second compound 10 µM): < 31.6 nM
- viability, T/C [1]: 76.6%
- viability, T/C [2]: 74.6%
- viability, T/C [3]: 64%
- viability, T/C [4]: 36.8%
- viability, T/C [5]: 5.61%
- viability, T/C [6]: 0.77%
- viability, T/C [7]: 79%
- viability, T/C [8]: 77.8%
- viability, T/C [9]: 58.3%
- viability, T/C [10]: 29.8%
- viability, T/C [11]: 3.48%
- viability, T/C [12]: 0.76%
- viability, T/C [13]: 84.2%
- viability, T/C [14]: 79.9%
- viability, T/C [15]: 53.7%
- viability, T/C [16]: 27.1%
- viability, T/C [17]: 1.11%
- viability, T/C [18]: 0.75%
- viability, T/C [19]: 41.6%
- viability, T/C [20]: 44.3%
- viability, T/C [21]: 39.5%
- viability, T/C [22]: 15.8%
- viability, T/C [23]: 0.78%
- viability, T/C [24]: 0.47%
- viability, T/C [25]: 2.11%
- viability, T/C [26]: 2.97%
- viability, T/C [27]: 4.27%
- viability, T/C [28]: 0.39%
- viability, T/C [29]: 0.31%
- viability, T/C [30]: 0.58%

SMILES: Nc1ncn(C2CC(O)C(CO)O2)c(=O)n1 (stereo not given) + CC(CO)NC(=O)c1cc(-c2ccc(Cl)cc2)nn(-c2cnn(C)c2)c1=O
- IC50 (second compound 0.1 µM): > 1000 nM
- IC50 (second compound 0.316 µM): > 1000 nM
- IC50 (second compound 1 µM): > 1000 nM
- IC50 (second compound 3.16 µM): > 1000 nM
- IC50 (second compound 10 µM): > 1000 nM
- viability, T/C (second compound 0.1 µM, first compound 0.00316 µM): 85.3%
- viability, T/C (second compound 0.1 µM, first compound 0.01 µM): 99.4%
- viability, T/C [1]: 84.8%
- viability, T/C [2]: 91.1%
- viability, T/C [3]: 85.9%
- viability, T/C [4]: 78%
- viability, T/C (second compound 0.316 µM, first compound 0.00316 µM): 81.5%
- viability, T/C (second compound 0.316 µM, first compound 0.01 µM): 91.9%
- viability, T/C [7]: 82.2%
- viability, T/C [8]: 87.5%
- viability, T/C [9]: 79.2%
- viability, T/C [10]: 76.5%
- viability, T/C (second compound 1 µM, first compound 0.00316 µM): 83.5%
- viability, T/C (second compound 1 µM, first compound 0.01 µM): 106%
- viability, T/C [13]: 78.5%
- viability, T/C [14]: 79.5%
- viability, T/C [15]: 71.7%
- viability, T/C [16]: 77.4%
- viability, T/C (second compound 3.16 µM, first compound 0.00316 µM): 78.7%
- viability, T/C (second compound 3.16 µM, first compound 0.01 µM): 80%
- viability, T/C [19]: 88.4%
- viability, T/C [20]: 67.9%
- viability, T/C [21]: 80.5%
- viability, T/C [22]: 71.8%
- viability, T/C (second compound 10 µM, first compound 0.00316 µM): 87.4%
- viability, T/C (second compound 10 µM, first compound 0.01 µM): 80.2%
- viability, T/C [25]: 79.3%
- viability, T/C [26]: 80.3%
- viability, T/C [27]: 69.9%
- viability, T/C [28]: 72.7%
